Earlier results, collected in patent publication US20220265565A1, “NANOTECHNOLOGY-BASED DELIVERY SYSTEM OF BERGAMOT ESSENTIAL OIL, METHOD OF PREPARATION OF THE SYSTEM AND USES THEREOF” (priority 2019, published 2022).

How the values were obtained:
[1] = about 0.2% in the nonvolatile residue of BEO
[2] = tested on: PSNL-induced neuropathic pain symptoms in mice
[3] = tested on: nociceptive response in the capsaicin test; conditions: for nociceptive response in the capsaicin test: intraplantar (i.pl.) administration

SMILES	phototoxicity [1]	neuropathic pain symptoms / mechanical allodynia ([2]; neuropathic pain models, PSNL mice, i.pl. injection)	morphine-induced anti-allodynic effect ([2]; under neuropathic pain)	nociceptive response in the capsaicin test [3]	morphine-induced antinociception with combined injection ([3]; morphine i.p. or i.t. combined with i.pl. injection of the substance)
COc1c2ccoc2cc2oc(=O)ccc12 [bergapten, 5-methoxypsoralen]	responsible for the phototoxicity of BEO				
C=CC(C)(O)CCC=C(C)C (stereo not drawn) [linalool]		reduced partial sciatic nerve ligation (PSNL)-induced neuropathic pain symptoms	modulate morphine-induced anti-allodynic effect	reduced the nociceptive response	markedly enhanced
C=CC(C)(CCC=C(C)C)OC(C)=O (stereo not drawn) [linalyl acetate]				reduced the nociceptive response	
